The values that follow come from patent US12285435B2, “Multivesicular liposome formulations of dexamethasone” (Pacira Pharmaceuticals, Inc., priority 2021, dated 2025).

A short description of series [1]: Pharmacokinetic study of subcutaneous DSP-MVL formulations vs bolus DSP in rats (dexamethasone plasma levels). It is filed as in vivo. The settings on record: rat. The method, then:
Pharmacokinetic (PK) studies of the subcutaneous dosing of DSP discussed herein were performed on rats where bolus DSP was compared to various formulations of DSP-MVLs at doses between 1.0 to 3.5 mg/kg for rats and at 0.5 mg/kg for beagles. Formulations 3AA, 5AA, 8AA, 11AA, 14AA, 4B, and 1C were diluted to 19-20% PPV from the initial PPV of about 30-45% with a final DSP concentration of approximately about 3 mg/mL to 3.5 mg/mL. Formulations 47-49 were not diluted, and the DSP concentration in the final product was approximately 7 mg/mL. In addition, PK studies of Formulation 18AA were performed on beagles through subcutaneous and epidural dosing of DSP of about 0.5 mg/kg.
Plasma samples were collected at different times points (0, 24, 48, 72, 96, 120, 144 and 168 hours post dose) for analysis. Blood samples were collected via the right saphenous vein using a 19-gauge needle prick or cardiac puncture for the final time point, placed into chilled tubes containing the appropriate anticoagulant, inverted several times to mix, protected from light, and kept on ice until centrifugation. A summary of the data in FIG. 1-6 is set forth below in Tables 1-2. For the rat studies, Cumulative % AUC is expressed as a percentage of the total AUC obtained in animals administered with Free DSP. For the dog studies, Cumulative % AUC is expressed as a percentage of the total AUC for each dog.
FIG. 1 is a line chart illustrating the dose normalized dexamethasone plasma levels obtained in rats as a function of time, following administration of several DSP-MVL formulations varying in internal pH (Formulations 47-49) as compared to DSP in a saline solution (“Free DSP Solution” Formulation).
FIG. 4 is a line chart illustrating the dose normalized dexamethasone plasma level obtained in rats as a function of time, following administration of two DSP-MVL formulations with and without triolein (Formulations 5AA and 3AA).
FIG. 5 is a line chart illustrating the dose normalized dexamethasone plasma levels obtained in rats as a function of time, following administration of several DSP-MVL formulations varying in lipid component concentrations (Formulations 4B and 1C).

For series [2] the following is noted: DSP, rapid absorption into the blood stream; cited from earlier work.
The mark [3] stands for this setting: percentage of the total AUC obtained in animals administered with Free DSP.

On to “dexamethasone sodium phosphate [Free DSP]”, for which the Tmax in series [1] is 1 h. Further, in series [1] (dose normalized), the AUC/dose was 1182 ng·h/mL/mg/kg. Also, in series [1] (setting [3]), the “Cumulative AUC % at 7 days” value is listed as 100% and the “Cumulative AUC % at 14 days” value worked out at 100%. Besides, in series [2], the plasma half-life is given as around 200 min.
